We go through 41 compounds from patent US7875600B2, “Pyrimidine compounds as purine receptor antagonist” (Vernalis (R&D) Limited, priority 2004, dated 2011).

As a reminder, the melting point is the temperature of the solid-liquid transition. The compound `Nc1nc(C(=O)NC2CCc3ccccc32)cc(-c2ccco2)n1` (stereo in doubt) [Example 78, (R)-2-Amino-6-(2-furyl)-N-(1-indanyl)pyrimidine-4-carboxamide] came in with a melting point of 126.7 to 127.2 °C.

With `Nc1nc(C(=O)NC2CCc3ccccc32)cc(-c2ccco2)n1` (stereo in doubt) [Example 79, (S)-2-Amino-6-(2-furyl)-N-(1-indanyl)pyrimidine-4-carboxamide], the melting point fell in the range of 111.8 to 112.5 °C.

Regarding `COc1cccc(CNC(=O)c2cc(-c3ccco3)nc(N)n2)c1` [Example 3, 2-Amino-6-(2-furyl)-N-(3-methoxybenzyl)pyrimidine-4-carboxamide], the melting point was in the range of 229.2 to 234.5 °C.

In the case of `Nc1nc(C(=O)N2CCCCC2)cc(-c2ccco2)n1` [Example 5, 1-(2-Amino-6-(2-furyl)pyrimidin-4-ylcarbonyl)piperidine], the melting point lay in the range of 139.5 to 143 °C.

For `NC(=O)c1cc(-c2ccco2)nc(N)n1` [Example 8, 2-Amino-6-(2-furyl)pyrimidine-4-carboxamide], the melting point is 218 to 219.8 °C.

On to `CN(C)c1ccc(CNC(=O)c2cc(-c3ccco3)nc(N)n2)cc1` [Example 9, 2-Amino-6-(2-furyl)-N-(4-dimethylaminobenzyl)pyrimidine-4-carboxamide], for which the melting point fell in the range of 202.4 to 202.9 °C.

`Nc1nc(C(=O)NCc2cccc(C(F)(F)F)c2)cc(-c2ccco2)n1` [Example 16, 2-Amino-N-(3-trifluoromethylbenzyl)-6-(2-furyl)pyrimidine-4-carboxamide]: the melting point is 170.6 to 170.7 °C.

Turning to `Nc1nc(C(=O)NCc2nc3ccccc3[nH]2)cc(-c2ccco2)n1` [Example 17, 2-Amino-N-(1H-benzimidazol-2-ylmethyl)-6-(2-furyl)pyrimidine-4-carboxamide], the melting point lay within 290.9 to 291.3 °C.

For the compound `Nc1nc(C(=O)NCc2ncccc2CN2CCOCC2)cc(-c2ccco2)n1` [Example 22, 2-Amino-6-(2-furyl)-N-(3-(4-morpholinylmethyl)pyridin-2-ylmethyl)pyrimidine-4-carboxamide], the melting point lay within 195.5 to 197.5 °C.

As to `COc1nc(C)ccc1CNC(=O)c1cc(-c2ccco2)nc(N)n1` [Example 29, 2-Amino-6-(2-furyl)-N-(2-methoxy-6-methylpyridin-3-ylmethyl)pyrimidine-4-carboxamide], the melting point lay within 178 to 178.1 °C.

In the case of `Cn1ccnc1CNC(=O)c1cc(-c2ccco2)nc(N)n1` [Example 34, 2-Amino-6-(2-furyl)-N-(1-methyl-1H-imidazol-2-ylmethyl)pyrimidine-4-carboxamide], the melting point fell in the range of 209.5 to 210.3 °C.

`Nc1nc(C(=O)NCc2ccc3[nH]ccc3c2)cc(-c2ccco2)n1` [Example 35, 2-Amino-6-(2-furyl)-N-(5-indolylmethyl)pyrimidine-4-carboxamide] returned a melting point of 170.1 to 170.5 °C.

As for `Cc1[nH]c2ccc(CNC(=O)c3cc(-c4ccco4)nc(N)n3)cc2c1C` [Example 36, 2-Amino-N-(2,3-dimethylindol-5-ylmethyl)-6-(2-furyl)pyrimidine-4-carboxamide], the melting point was 155.9 to 156 °C.

`Cc1cc(CNC(=O)c2cc(-c3ccco3)nc(N)n2)ccc1[N+](=O)[O-]` [Example 37, 2-Amino-6-(2-furyl)-N-(3-methyl-4-nitrobenzyl)pyrimidine-4-carboxamide] registered a melting point of 191.8 to 192.2 °C.

In turn, `Cc1cc2cc(CNC(=O)c3cc(-c4ccco4)nc(N)n3)ccc2[nH]1` [Example 40, 2-Amino-6-(2-furyl)-N-(2-methylindol-5-ylmethyl)pyrimidine-4-carboxamide] came in with a melting point of 105.6 to 105.7 °C.

Regarding `CC(C)NC(=O)OCc1cccc(CNC(=O)c2cc(-c3ccco3)nc(N)n2)n1` [Example 41, 6-(2-Amino-6-(2-furyl)pyrimidine-4-carboxamidomethyl)pyridin-2-ylmethyl isopropylcarbamate], the melting point was 155.2 to 155.7 °C.

`COCc1ccc(C)c(CNC(=O)c2cc(-c3ccco3)nc(N)n2)n1` [Example 46, 2-Amino-6-(2-furyl)-N-(6-methoxymethyl-3-methylpyridin-2-ylmethyl)pyrimidine-4-carboxamide] displayed a melting point of 148 to 148.4 °C.

Consider `Nc1nc(C(=O)NCc2ccc3cc[nH]c3c2)cc(-c2ccco2)n1` [Example 48, 2-Amino-6-(2-furyl)-N-(6-indolylmethyl)pyrimidine-4-carboxamide], for which the melting point was in the range of 193.8 to 194 °C.

Consider `Nc1nc(C(=O)NCc2cccc3cccnc23)cc(-c2ccco2)n1` [Example 49, 2-Amino-6-(2-furyl)-N-(quinolin-8-ylmethyl)pyrimidine-4-carboxamide], for which the melting point fell in the range of 230.7 to 230.9 °C.

With `Nc1nc(C(=O)NCc2ccc3nsnc3c2)cc(-c2ccco2)n1` [Example 53, 2-Amino-N-([2,1,3]benzothiadiazol-5-ylmethyl)-6-(2-furyl)pyrimidine-4-carboxamide], the melting point is 171.2 to 172.1 °C.

`Nc1nc(C(=O)NCc2ccc3ccccc3n2)cc(-c2ccco2)n1` [Example 57, 2-Amino-6-(2-furyl)-N-(quinolin-2-ylmethyl)pyrimidine-4-carboxamide] yielded a melting point of 180.9 to 181.4 °C.

In turn, `Nc1nc(C(=O)NCc2nc3ccccc3s2)cc(-c2ccco2)n1` [Example 58, 2-Amino-N-(benzothiazol-2-ylmethyl)-6-(2-furyl)pyrimidine-4-carboxamide] displayed a melting point of 219.9 to 222.3 °C.

In the case of `Cc1ccc(COCC2CC2)nc1CNC(=O)c1cc(-c2ccco2)nc(N)n1` [Example 59, 2-Amino-N-(6-cyclopropylmethoxymethyl-3-methylpyridin-2-ylmethyl)-6-(2-furyl)pyrimidine-4-carboxamide], the melting point lay within 154.5 to 156.9 °C.

For the compound `C[C@H](NC(=O)c1cc(-c2ccco2)nc(N)n1)c1ccccc1` [Example 60, (S)-2-Amino-6-(2-furyl)-N-(1-phenylethyl)pyrimidine-4-carboxamide], the melting point was in the range of 158.7 to 158.9 °C.

The compound `C[C@@H](NC(=O)c1cc(-c2ccco2)nc(N)n1)c1ccccc1` [Example 63, (R)-2-Amino-6-(2-furyl)-N-(1-phenylethyl)pyrimidine-4-carboxamide] had a melting point of 158.8 to 159.1 °C.

`Nc1nc(C(=O)N2Cc3ccccc3C2)cc(-c2ccco2)n1` [Example 66, 2-(2-Amino-6-(2-furyl)pyrimidin-4-ylcarbonyl)-2,3-dihydro-1H-isoindole]: the melting point fell in the range of 226.2 to 226.3 °C.

Compound `Nc1nc(C(=O)N2CCc3ccccc3C2)cc(-c2ccco2)n1` [Example 71, 2-(2-Amino-6-(2-furyl)pyrimidin-4-ylcarbonyl)-1,2,3,4-tetrahydroisoquinoline] registered a melting point of 193.3 to 193.6 °C.

The compound `Nc1nc(C(=O)N2CCCc3ccccc32)cc(-c2ccco2)n1` [Example 72, 1-(2-Amino-6-(2-furyl)pyrimidin-4-ylcarbonyl)-1,2,3,4-tetrahydroquinoline] yielded a melting point of 203.8 to 204.5 °C.

Compound `Nc1nc(C(=O)N2CCc3ccccc32)cc(-c2ccco2)n1` [Example 75, 1-(2-Amino-6-(2-furyl)pyrimidin-4-ylcarbonyl)-2,3-dihydroindole] gave a melting point of 251.9 to 252.3 °C.

On to `Nc1nc(C(=O)NCCCc2ccccc2)cc(-c2ccco2)n1` [Example 83, 2-Amino-6-(2-furyl)-N-(3-phenylpropyl)pyrimidine-4-carboxamide], for which the melting point lay in the range of 131 to 131.1 °C.

As to `CCCNC(=O)OCc1cccc(CNC(=O)c2cc(-c3ccco3)nc(N)n2)n1` [Example 85, 6-(2-Amino-6-(2-furyl)pyrimidine-4-carboxamidomethyl)pyridin-2-ylmethyl n-propylcarbamate], the melting point lay in the range of 151.6 to 155.7 °C.

The compound `Cc1cnc(CNC(=O)c2cc(-c3ccco3)nc(N)n2)cn1` [Example 88, 2-Amino-6-(2-furyl)-N-(5-methylpyrazin-2-ylmethyl)pyrimidine-4-carboxamide] had a melting point of 191.9 to 192 °C.

The compound `Nc1nc(C(=O)NC2Cc3ccccc3C2)cc(-c2ccco2)n1` [Example 90, 2-Amino-6-(2-furyl)-N-(2-indanyl)pyrimidine-4-carboxamide] displayed a melting point of 220 to 221.3 °C.

`Nc1nc(C(=O)NCc2ncc[nH]2)cc(-c2ccco2)n1` [Example 91, 2-Amino-6-(2-furyl)-N-(1H-imidazol-2-ylmethyl)pyrimidine-4-carboxamide]: the melting point was > 200 °C (dec.).

In turn, `CCCn1ccnc1CNC(=O)c1cc(-c2ccco2)nc(N)n1` [Example 92, 2-Amino-6-(2-furyl)-N-(1-n-propyl-1H-imidazol-2-ylmethyl)pyrimidine-4-carboxamide] returned a melting point of 270.7 to 271.5 °C.

For the compound `Nc1nc(C(=O)NCc2cccc(Br)n2)cc(-c2ccco2)n1` [Example 94, 2-Amino-N-(6-bromopyridin-2-ylmethyl)-6-(2-furyl)pyrimidine-4-carboxamide], the melting point fell in the range of 178.1 to 179.3 °C.

Regarding `Nc1nc(C(=O)NCCCn2ccnc2)cc(-c2ccco2)n1` [Example 96, 2-Amino-6-(2-furyl)-N-(3-(1H-imidazol-1-yl)propyl)pyrimidine-4-carboxamide], the melting point was 248.2 to 249 °C.

Regarding `CCn1ccnc1CNC(=O)c1cc(-c2ccco2)nc(N)n1` [Example 98, 2-Amino-N-(1-ethyl-1H-imidazol-2-ylmethyl)-6-(2-furyl)pyrimidine-4-carboxamide], the melting point was 263.1 to 264.9 °C.

In the case of `Cc1ccc(CNC(=O)c2cc(-c3ccco3)nc(N)n2)c(N(C)C)n1` [Example 102, 2-Amino-N-(2-dimethylamino-6-methylpyridin-3-ylmethyl)-6-(2-furyl)pyrimidine-4-carboxamide], the melting point lay within 203 to 203.1 °C.

As for `CCCc1cccc(CNC(=O)c2cc(-c3nccs3)nc(N)n2)n1` [Example 109, 2-Amino-N-(6-n-propylpyridin-2-ylmethyl)-6-(thiazol-2-yl)pyrimidine-4-carboxamide], the melting point was 144.1 to 144.3 °C.

With `COCc1cccc(CNC(=O)c2nc(N)nc(-c3ccc(C)o3)c2Cl)n1` [Example 116, 2-Amino-5-chloro-N-(6-methoxymethylpyridin-2-ylmethyl)-6-(5-methyl-2-furyl)pyrimidine-4-carboxamide], the melting point is 168.6 to 168.9 °C.
